SMILES strings stand for the structures. Several values for one entry are separate records, joined by “and”; a condition that tells them apart may be missing. Equal entries are not always repeated. Structures can show the parent of a compound that is named as a salt.

65 molecules from the supplement of paper PMC10290057 can be followed below.
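Also: Luminescence-based viability readout, five doses per compound, normalized against on-plate DMSO and empty-well controls, followed by dose-response curve fitting for every drug.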

This test has as its system HCT116. In words: efficacy (fitted maximal change in viability relative to DMSO control); higher = less cytotoxic (negative = loss of viability). Conditions: 48 h.
Take `CN(CC(=O)N(Cc1ccc(C2CCCCC2)cc1)c1ccc(C(=O)O)c(O)c1)[S+](=O)([O-])c1c(F)c(F)c(F)c(F)c1F` [BP-1-102]: the efficacy was -10.2%.

As for `O=C(Cc1ccccc1)Nc1nnc(CCSCCc2nnc(NC(=O)Cc3ccccc3)s2)s1` [BPTES], the efficacy is -25%.

On to `CC(C)C[C@@H]1NC(=O)[C@@H](C(C)C)NC(=O)[C@@H]2CCCN2C(=O)[C@@H](CC(=O)O)NC(=O)[C@@H](Cc2c[nH]c3ccccc23)NC1=O` [BQ-123], for which the efficacy was -9.37%.

Regarding `C[N]1N=C(C)C2=C1OC(=C(/C#N)C2C3=CC=C(C=C3)C(F)(F)F)/N` (stereo not given) [BQU-57], the efficacy was -30.8%.

For the molecule `CC(C)c1cnn2c(NCc3ccccc3)cc(NCCCCCCN)nc12` [BS-181], the efficacy is -106%.

As to `Cc1c(Cl)cccc1[S+](=O)([O-])Nc1nc(CCN2CCOCC2=O)cs1` [BVT-3498], the efficacy was -14.1%.

`O=C(NCCCNc1nc(Nc2cccc(NC(=O)N3CCCC3)c2)ncc1I)c1cccs1` [BX-795]: the efficacy was -76.5%.

Consider `CCC(C)C(N)\C1=N\C(CS1)C(=O)N[C@@H](CC(C)C)C(=O)N[C@H](CCC(O)=O)C(=O)N[C@@H]([C@@H](C)CC)C(=O)N[C@H]2CCCCNC(=O)[C@H](CC(N)=O)NC(=O)[C@@H](CC(O)=O)NC(=O)[C@H](CC3=CN=C[NH]3)NC(=O)[C@@H](CC4=CC=CC=C4)NC(=O)[C@@H](NC(=O)[C@@H](CCCN)NC2=O)[C@@H](C)CC` (stereo not given in full) [Bacitracin (Zinc)], for which the efficacy is -26.9%.

For the molecule `OC1=CC2=C(C(=O)\C=C(/O2)C3=CC=CC=C3)C(=C1O)O` [Baicalein], the efficacy is -14.7%.

With `CNC1CCCN(C1)C2=C(F)C=C3C(=O)\C(=C/N(C4CC4)C3=C2OC)C(O)=O` (stereo not given) [Balofloxacin], the efficacy is -10.2%.

As to `O=C(O)CCNC(=O)c1ccc(/N=N/c2ccc(O)c(C(=O)O)c2)cc1` [Balsalazide disodium], the efficacy is -11.7%.

For the molecule `Cc1onc(-c2ccc(F)cc2)c1COc1ccc(C(=O)N2CC[S+](=O)([O-])CC2)cn1` [Basmisanil], the efficacy was -18.7%.

As for `CNC(=O)[C@H](Cc1ccccc1)NC(=O)[C@H](CC(C)C)[C@H](CSc1cccs1)C(=O)NO` [Batimastat], the efficacy is -46.2%.

With `CCOC(=O)[C@H](CCc1ccccc1)N[C@H]1CCc2ccccc2N(CC(=O)O)C1=O` [Benazepril], the efficacy is -8.42%.

Take `Cl.NC(CO)C(=O)NNCc1ccc(O)c(O)c1O` (stereo not given) [Benserazide]: the efficacy was -65.3%.

Turning to `CCCCC(=O)O[C@@]1([C@@H](C)C[C@H]2[C@@H]3CCC/4=C/C(=O)/C=C\[C@]4(C)[C@@]3(F)[C@@H](O)C[C@]12C)C(=O)CO` [Betamethasone valerate], the efficacy was -7.12%.

As to `CC(C)NCC(O)COc1ccc(CCOCC2CC2)cc1` (stereo not given) [Betaxolol], the efficacy is -9.42%.

Consider `CC(C[N+](C)(C)C)OC(N)=O` (stereo not given) [Bethanechol chloride], for which the efficacy was -25.8%.

Regarding `C=C(C)[C@@H]1CC[C@]2(C(=O)O)CC[C@]3(C)[C@H](CC[C@@H]4[C@@]5(C)CC[C@H](O)C(C)(C)[C@@H]5CC[C@]43C)[C@@H]12` [Betulinic acid], the efficacy is 14.5%.

For `C=C(c1ccc(C(=O)O)cc1)c1cc2c(cc1C)C(C)(C)CCC2(C)C` [Bexarotene], the efficacy was -19.6%.

With `CC(O)(C[S+](=O)([O-])c1ccc(F)cc1)C(=O)Nc1ccc(C#N)c(C(F)(F)F)c1` (stereo not given) [Bicalutamide], the efficacy is -14.2%.

In the case of `CCNC(=O)CCC/C=C\C[C@@H]1[C@@H](/C=C/C(O)CCc2ccccc2)[C@@H](O)C[C@@H]1O` (stereo not given in full) [Bimatoprost], the efficacy is -24.4%.

Regarding `COC1=CC=C(C=C1)C/2=C/OC3=C(C(=CC(=C3)O)O)C2=O` [Biochanin A], the efficacy was -34.7%.

As for `N=C1S/C(=C\c2ccc(-c3ccc4c(c3)C(=O)NC4=O)o2)C(=O)N1c1ccc(Br)cc1` [Bioymifi], the efficacy is -15.3%.

For the molecule `OC(CCN1CCCCC1)(C2CC\3CC2\C=C3)C4=CC=CC=C4` (stereo not given) [Biperiden], the efficacy was -34.7%.

As to `CC[C@H](NC(=O)[C@H](C)NC)C(=O)N1C[C@@H](O)C[C@H]1Cc1c(-c2[nH]c3cc(F)ccc3c2C[C@@H]2C[C@H](O)CN2C(=O)[C@H](CC)NC(=O)[C@H](C)NC)[nH]c2cc(F)ccc12` [Birinapant], the efficacy was -49.9%.

On to `CC/C(=C(/c1ccc(/C=C/C(=O)O)cc1)c1ccc2[nH]ncc2c1)c1ccc(F)cc1Cl` [Brilanestrant], for which the efficacy was -35.5%.

Regarding `CCCCCCCCCCCCCCCCOCCCO[P](O)(=O)COC(CO)CN1/C=C\C(=N/C1=O)N` (stereo not given) [Brincidofovir], the efficacy was -6.44%.

Consider `CN(Cc1cc(Br)cc(Br)c1N)C1CCCCC1` [Bromhexine hydrochloride], for which the efficacy was -27.2%.

Regarding `CCCCOc1ccc(CC(=O)NO)cc1` [Bufexamac], the efficacy is -14.9%.

As to `COc1cc(OC)c(C(=O)CCCN2CCCC2)c(OC)c1` [Buflomedil hydrochloride], the efficacy is -7.04%.

As for `CCCCNc1cc(C(=O)O)cc([S+](N)(=O)[O-])c1Oc1ccccc1` [Bumetanide], the efficacy is -7.8%.

`C[S+](=O)([O-])OCCCCO[S+](C)(=O)[O-]` [Busulfan]: the efficacy is -5.76%.

Regarding `C=C1C(=O)OC(CCCCCCCC)C1C(=O)O` (stereo not given) [C75], the efficacy is -6.41%.

On to `CC1=NN(c2ccc(C(=O)O)cc2)C(=O)/C1=C/c1ccc(-c2cc(C)c(C)cc2[N+](=O)[O-])o1` [C-646], for which the efficacy is -21%.

In the case of `O=C(NCc1ccccc1)[C@H](Cc1ccccc1)NC(=O)[C@H]1O[C@@H]1C(=O)NCCc1ccc(O)cc1` [CAA-0225], the efficacy was -24.8%.

On to `CN1\C=C(/N=C(NC2=CC=C(C=C2)C(=O)N3CCOCC3)\C1=O)C4=C(C)C(=CC=C4)NC(=O)C5=CC=C(C=C5)C(C)(C)C` [CGI-1746], for which the efficacy was -29.2%.

For `Clc1ccc(-c2nc3sccn3c2/C=N/OCc2ccc(Cl)c(Cl)c2)cc1` [CITCO], the efficacy was -19.4%.

On to `CC(C)C/1=C(NC2=C(C=N[N]2C1=O)C#N)\C3=CC=CC=C3` [CPI-455], for which the efficacy was -11.2%.

For the molecule `O=C(O)CCCCC(CCSCc1ccccc1)SCc1ccccc1` (stereo not given) [CPI-613], the efficacy was -19.4%.

As for `CC(=O)Nc1ccc(C(=O)NC(C)(C)C)cc1` [CPI-1189], the efficacy is -10.3%.

As to `COC/1=C(\CNC(=O)C2=C(C)[N]([C@H](C)C3CCN(CC3)CC(F)(F)F)C4=C2C=CC=C4)C(=O)N/C(=C1)C` [CPI-1205], the efficacy is -27.1%.

With `CCC/1=C(/NC2=C(C=N[N]2C1=O)C#N)C3=CC=CC=C3C` [CPI-4203], the efficacy is 17.2%.

`CN[C@@H](C)C(=O)N[C@H](C(=O)N1CCC[C@H]1C(=O)Nc1sc(-c2ncco2)nc1-c1ccccc1)C1CCCCC1` [CUDC-427]: the efficacy was -17%.

On to `CCCn1c(=O)c2[nH]c(-c3cnn(Cc4cccc(C(F)(F)F)c4)c3)nc2n(CC)c1=O` [CVT-6883], for which the efficacy is -14.4%.

As for `Cc1nc(C)c(CN2CCN(C(c3ccc(F)cc3)c3ccc(F)cc3)CC2)nc1C` [CXC-195], the efficacy is -77.3%.

For the molecule `C=C1/C(=C\C=C2/CCC[C@]3(C)[C@@H]([C@H](C)CCCC(C)(C)O)CC[C@@H]23)C[C@@H](O)C[C@@H]1O` [Calcitriol], the efficacy was -65% and -62.8%.

Take `N/C1=N/C(=O)C/2=C(NC[C@@H](CNC3=CC=C(C=C3)C(=O)N[C@@H](CCC([O-])=O)C([O-])=O)N2C=O)\N1` [Calcium folinate]: the efficacy was -9.49%.

`CCCC[C@@H](C=O)NC(=O)[C@H](CC(C)C)NC(=O)OCc1ccccc1` [Calpeptin]: the efficacy was -29.4%.

As to `CC[C@@]1(O)C(=O)OC\C2=C1\C=C\3N(CC4=C3N=C5C=CC=CC5=C4)C2=O` [Camptothecin], the efficacy was -65.5%.

As to `CNC(=O)c1ccc(-c2cnc3ncc(Cc4ccc5ncccc5c4)n3n2)cc1F` [Capmatinib], the efficacy was -28.8%.

As to `COc1cc(CNC(=O)CCCC/C=C/C(C)C)ccc1O` [Capsaicin], the efficacy was -16.7%.

`COc1ccc(Nc2nccc(NCCO)n2)cc1` [Cardiogenol]: the efficacy was -11.7%.

For `O=NN(CCCl)C(=O)NCCCl` [Carmustine], the efficacy is -15.1%.

As to `CCN(CC)CCN1C(=O)\C(=N/C2=CC=CC=C12)CC3=CC=C(OC)C=C3` [Caroverine], the efficacy is -15.9%.

For the molecule `CC(C)C[C@H](NC(=O)[C@H](Cc1ccccc1)NC(=O)OCc1ccccc1)C(=O)C=O` [Cathepsin S Inhibitor], the efficacy was -64.5%.

With `CCN1CCN(C(=O)N[C@@H](C(=O)N[C@H]2[C@H]3SC\C(=C(/N3C2=O)C(O)=O)CSC4=NN=N[N]4C)C5=CC=C(O)C=C5)C(=O)C1=O` [Cefoperazone (sodium salt)], the efficacy is -15.8%.

For `Cc1nnc(C(C)C)n1C1CC2CCC(C1)N2CCC(NC(=O)C1CCC(F)(F)CC1)c1ccccc1` (stereo not given) [Celsentri (Maraviroc)], the efficacy worked out at 17%.

As to `CC[S+](=O)([O-])N1CCN(c2ccc(Nc3ncc(C(N)=O)c(NC4CC4)n3)cc2)CC1` [Cerdulatinib], the efficacy was -88.9%.

`COc1ccc2c(c[n+](C)c3c4cc5c(cc4ccc23)OCO5)c1OC` [Chelerythrine chloride]: the efficacy was -83.2%.

With `C[C@H](CCC(=O)O)[C@H]1CC[C@H]2[C@@H]3[C@H](O)C[C@@H]4C[C@H](O)CC[C@]4(C)[C@H]3CC[C@]12C` [Chenodeoxycholic acid], the efficacy was -16%.

In the case of `CCN(CC)CCCC(C)Nc1ccnc2cc(Cl)ccc12` (stereo not given) [Chloroquine], the efficacy is -24.3%.

For `N[S+]([O-])(=O)C1=C(Cl)C=C2\N=C/N[S+]([O-])(=O)C2=C1` [Chlorothiazide], the efficacy is -4.38%.

Regarding `Cc1cc(O)c2c(c1)C(=O)c1cccc(O)c1C2=O` [Chrysophanol], the efficacy was -8.65%.

For the molecule `NC/1=N/C(=O)N(C[C@@H](CO)OC[P](O)(O)=O)/C=C1` [Cidofovir], the efficacy was found to be 7.03%.
